In US8129403B2, “Chemical compounds” (AstraZeneca AB, priority 2005, dated 2012):

Target: T1, human Trk A kinase (Homo sapiens, UniProt P04629)
T1 construct: HIS tag; made in house; host or cells: SF9 insect cells
Test: Trk A Assay (Alphascreen kinase assay)
Assay type: biochemical
Settings: intracellular domain of HIS-tagged human Trk A, 70 μM ATP, PolyEY-biotin substrate, 20 minutes room temperature; read-out: IC50 (μM), Trk inhibitory activity
Description: Trk A kinase activity was measured for its ability to phosphorylate synthetic tyrosine residues within a generic polypeptide substrate using an Amplified Luminescent Proximity Assay (Alphascreen) technology (PerkinElmer, 549 Albany Street, Boston, Mass.).
To measure Trk A kinase activity, the intracellular domain of a HIS-tagged human Trk A kinase (amino acids 442-796 of Trk A, Swiss-Prot Primary Accession Number P04629) was expressed in SF9 cells and purified using standard nickel column chromatography. After incubation of the kinase with a biotinylated substrate and adenosine triphosphate (ATP) for 20 minutes at room temperature, the kinase reaction was stopped by the addition of 30 mM ethylenediaminetetraacetic acid (EDTA). The reaction was performed in 384 well microtitre plates and the reaction products were detected with the addition of strepavidin coated Donor Beads and phosphotyrosine-specific antibodies coated Acceptor Beads using the EnVision Multilabel Plate Reader after an overnight incubation at room temperature.

T1 sequence (P04629 442-796): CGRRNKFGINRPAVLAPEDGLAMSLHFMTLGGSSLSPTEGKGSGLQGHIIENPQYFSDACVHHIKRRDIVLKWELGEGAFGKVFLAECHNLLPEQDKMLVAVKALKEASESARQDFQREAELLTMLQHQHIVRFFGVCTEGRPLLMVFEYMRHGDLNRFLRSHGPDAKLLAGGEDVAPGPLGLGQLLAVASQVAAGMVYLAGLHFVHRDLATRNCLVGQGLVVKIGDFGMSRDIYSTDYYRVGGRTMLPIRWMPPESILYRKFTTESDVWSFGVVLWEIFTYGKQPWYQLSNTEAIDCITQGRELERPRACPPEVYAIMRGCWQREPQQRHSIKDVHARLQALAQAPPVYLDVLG

Row | IC50 [µM] | SMILES
1 | 0.022 | Fc1ccc(CNc2ccc3ncn(-c4cc(C5CC5)[nH]n4)c3n2)cc1 [Example 14, N-(4-Fluorobenzyl)-3-(5-cyclopropyl-1H-pyrazol-3-yl)-3H-imidazo[4,5-b]pyridin-5-amine]
2 | 0.02 | Fc1ccc(CNc2ncc3ncn(-c4cc(C5CC5)[nH]n4)c3n2)cc1 [Example 4, 9-(5-Cyclopropyl-1H-pyrazol-3-yl)-N-(4-fluorobenzyl)-9H-purin-2-amine]
3 | 0.015 | Fc1ccc(CNc2ccc3ncn(-c4cc(C5CC5)[nH]n4)c3c2)cc1 [Example 29, N-(4-Fluorobenzyl)-3-(5-cyclopropyl-1H-pyrazol-3-yl)-3H-benzo[d]imidazol-5-amine]
